Where a chain is given by its changes, count along the chain named.
What was measured:
Type in all cases: cell-based
GIPR mutants [1] = biological target: T1, GIPR mutants (Homo sapiens, UniProt P48546, E354A); assay: cAMP accumulation, single-point mutated GIPR; details: GIPR E354(6.53b)A; HEK-293T, 40 min, TR-FRET; mean ± S.E.M., n at least 3
T1 construct: expressed in transfected cells; host or cells: HEK-293T
Experimental: (§1) HEK-293T cells were maintained at 37°C in 5% CO2 incubator and seeded onto 6-well cell […]
(§2) culture plates before transfection. After overnight culture, the cells were transiently transfected […]
(§3) with various constructs using Lipofectamine 2000 transfection reagent (Invitrogen). After 24 h, […]
(§4) the transfected cells were seeded onto 384-microtiter plates at a density of 3,000 cells per well […]
(§5) in stimulation buffer (HBSS supplemented with 5 mM HEPES, 0.1% (w/v) casein and 0.5 mM […]
(§6) 3-isobutyl-1-methylxanthine). Different concentrations of retatrutide in stimulation buffer were […]
(§7) added, and the stimulation lasted for 40 min. The reaction was stopped by addition of cAMP […]
(§8) detection buffer containing Eu-cAMP tracer and ULight-anti-cAMP. Plates were then incubated for […]
(§9) 60 min at RT. Time-resolved FRET signals were measured at 620 nm and 665 nm, respectively, by […]
(§10) an EnVision multilabel plate reader (PerkinElmer). Data were analyzed in GraphPad PRISM 9.5 […]
(§11) and all values were normalized to that of the wild-type (WT).
(§12) Supplementary Fig. 5 Effects of receptor mutation on retatrutide-induced cAMP […]
(§13) accumulation. a-c, Signaling profiles of GLP-1R (a), GIPR (b) and GCGR (c) mutants. cAMP […]
(§14) accumulation was measured in wild-type (WT) and single-point mutated GLP-1R, GIPR or […]
(§15) GCGR expressing HEK-293T cells. cAMP levels were normalized to the maximum response […]
(§16) of the WT and dose-response curves were analyzed using a three-parameter logistic equation.
(§17) Data were generated and graphed as means ± S.E.M. of at least three independent experiments performed in quadruplicate.
(§18) (1 picture or pasted object on this page, not shown here)
(§19) Supplementary Ta b l e S 5 Effects of the ligand-binding pocket residue mutation on retatrutide- […]
(§20) induced cAMP signaling at GLP-1R, GIPR or GCGR. […]
(§21) cAMP levels were normalized to the maximum response of the wild-type (WT) and dose-response […]
(§22) curves were analyzed using a three-parameter logistic equation to obtain pEC50 and Emax values. The […]
(§23) experiments were carried out independently at least three times. Data shown are means ± S.E.M. One- […]
(§24) way ANOVA was used to determine statistical difference. N.D., values that could not be determined due […]
(§25) to incomplete curve fits. *P< 0.05, **P< 0.01, ***P< 0.001 and ****P<0.0001.

GIPR mutants [2] = biological target: T2, GIPR mutants (Homo sapiens, UniProt P48546, E377A); assay: cAMP accumulation, single-point mutated GIPR
T2 construct: expressed in transfected cells; host or cells: HEK-293T
T2 sequence (P48546 22-466 E377A): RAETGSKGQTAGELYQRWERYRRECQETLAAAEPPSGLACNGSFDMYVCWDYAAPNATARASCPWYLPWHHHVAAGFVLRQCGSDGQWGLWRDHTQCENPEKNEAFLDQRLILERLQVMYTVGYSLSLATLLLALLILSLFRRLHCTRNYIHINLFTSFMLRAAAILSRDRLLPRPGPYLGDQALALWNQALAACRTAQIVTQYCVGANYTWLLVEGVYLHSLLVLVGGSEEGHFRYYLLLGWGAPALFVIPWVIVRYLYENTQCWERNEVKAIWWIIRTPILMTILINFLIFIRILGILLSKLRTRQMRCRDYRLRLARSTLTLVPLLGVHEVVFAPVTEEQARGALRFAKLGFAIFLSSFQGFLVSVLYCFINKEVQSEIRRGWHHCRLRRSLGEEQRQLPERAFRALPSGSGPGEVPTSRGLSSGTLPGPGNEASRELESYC
Experimental: as §1, §2, §3, §4, §5, §6, §7, §8, §9, §10, §11, §12, §13, §14, §15, §16, §17, §18, §19, §20, §21, §22, §23, §24, §25

GIPR mutants [3] = biological target: T3, GIPR mutants (Homo sapiens, UniProt P48546, R131E); assay: cAMP accumulation, single-point mutated GIPR; details: GIPR R131(1.33b)E
T3 construct: expressed in transfected cells; host or cells: HEK-293T
T3 sequence (P48546 22-466 R131E): T2 sequence (P48546 22-466 E377A) with R110E, A356E
Experimental: as §1, §2, §3, §4, §5, §6, §7, §8, §9, §10, §11, §12, §13, §14, §15, §16, §17, §18, §19, §20, §21, §22, §23, §24, §25

GCGR mutants [4] = biological target: T4, GCGR mutants (Homo sapiens, UniProt P47871, E362A); assay: cAMP accumulation, single-point mutated GCGR; details: GCGR E362(6.53b)A, HEK-293T, 40 min, TR-FRET, mean ± S.E.M., n at least 3
T4 construct: expressed in transfected cells; host or cells: HEK-293T
T4 sequence (P47871 26-477 E362A): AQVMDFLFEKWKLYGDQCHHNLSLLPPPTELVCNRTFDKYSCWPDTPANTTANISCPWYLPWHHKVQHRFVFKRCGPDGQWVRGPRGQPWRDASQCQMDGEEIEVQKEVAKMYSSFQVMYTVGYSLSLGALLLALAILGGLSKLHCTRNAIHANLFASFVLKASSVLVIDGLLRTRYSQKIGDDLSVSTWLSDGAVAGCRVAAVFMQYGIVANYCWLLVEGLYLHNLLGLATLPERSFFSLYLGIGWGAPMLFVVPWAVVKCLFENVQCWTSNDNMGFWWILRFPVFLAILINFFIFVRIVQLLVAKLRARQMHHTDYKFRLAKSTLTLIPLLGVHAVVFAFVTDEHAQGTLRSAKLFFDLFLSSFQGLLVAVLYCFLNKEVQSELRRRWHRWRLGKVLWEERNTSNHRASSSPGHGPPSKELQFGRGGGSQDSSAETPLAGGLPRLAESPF
Experimental: as §1, §2, §3, §4, §5, §6, §7, §8, §9, §10, §11, §12, §13, §14, §15, §16, §17, §18, §19, §20, §21, §22, §23, §24, §25

GCGR mutants [5] = biological target: T5, GCGR mutants (Homo sapiens, UniProt P47871, I194K); assay: cAMP accumulation, single-point mutated GCGR; details: GCGR I194(2.67b)K, HEK-293T, 40 min, TR-FRET, mean ± S.E.M., n at least 3
T5 construct: expressed in transfected cells; host or cells: HEK-293T
T5 sequence (P47871 26-477 I194K): as the sequence (P47871 26-477 E362A) above, with I169K, A337E counted along it
Experimental: as §1, §2, §3, §4, §5, §6, §7, §8, §9, §10, §11, §12, §13, §14, §15, §16, §17, §18, §19, §20, §21, §22, §23, §24, §25

GCGR mutants [6] = biological target: T6, GCGR mutants (Homo sapiens, UniProt P47871, Q131A); assay: cAMP accumulation, single-point mutated GCGR; details: GCGR Q131(1.29b)A; HEK-293T, 40 min, TR-FRET; mean ± S.E.M., n at least 3
T6 construct: expressed in transfected cells; host or cells: HEK-293T
T6 sequence (P47871 26-477 Q131A): as the sequence (P47871 26-477 E362A) above, with Q106A, A337E counted along it
Experimental: as §1, §2, §3, §4, §5, §6, §7, §8, §9, §10, §11, §12, §13, §14, §15, §16, §17, §18, §19, §20, §21, §22, §23, §24, §25

GCGR mutants [7] = biological target: T7, GCGR mutants (Homo sapiens, UniProt P47871, Q293A); assay: cAMP accumulation, single-point mutated GCGR; details: GCGR Q293(ECL2)A, HEK-293T, 40 min, TR-FRET, mean ± S.E.M., n at least 3
T7 construct: expressed in transfected cells; host or cells: HEK-293T
T7 sequence (P47871 26-477 Q293A): as the sequence (P47871 26-477 E362A) above, with Q268A, A337E counted along it
Experimental: as §1, §2, §3, §4, §5, §6, §7, §8, §9, §10, §11, §12, §13, §14, §15, §16, §17, §18, §19, §20, §21, §22, §23, §24, §25

GCGR mutants [8] = biological target: T8, GCGR mutants (Homo sapiens, UniProt P47871, W87A); assay: cAMP accumulation, single-point mutated GCGR; details: GCGR W87(ECD)A, HEK-293T, 40 min, TR-FRET, mean ± S.E.M., n at least 3
T8 construct: expressed in transfected cells; host or cells: HEK-293T
T8 sequence (P47871 26-477 W87A): as the sequence (P47871 26-477 E362A) above, with W62A, A337E counted along it
Experimental: as §1, §2, §3, §4, §5, §6, §7, §8, §9, §10, §11, §12, §13, §14, §15, §16, §17, §18, §19, §20, §21, §22, §23, §24, §25

T1 sequence (P48546 22-466 E354A): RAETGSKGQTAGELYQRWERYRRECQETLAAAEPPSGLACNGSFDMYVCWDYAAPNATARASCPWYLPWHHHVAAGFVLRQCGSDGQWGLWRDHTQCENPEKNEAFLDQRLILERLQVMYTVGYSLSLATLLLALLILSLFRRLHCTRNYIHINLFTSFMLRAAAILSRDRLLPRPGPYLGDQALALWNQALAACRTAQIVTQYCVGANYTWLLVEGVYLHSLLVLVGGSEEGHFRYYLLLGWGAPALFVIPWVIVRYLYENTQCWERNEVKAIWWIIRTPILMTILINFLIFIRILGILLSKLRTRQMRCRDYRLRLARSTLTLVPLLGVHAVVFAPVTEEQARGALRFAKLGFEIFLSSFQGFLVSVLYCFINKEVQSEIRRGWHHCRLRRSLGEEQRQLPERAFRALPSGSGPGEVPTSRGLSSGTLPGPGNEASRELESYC

For `CC[C@H](C)[C@H](NC(=O)[C@H](Cc1ccccc1)NC(=O)[C@H](C)NC(=O)C(C)(C)NC(=O)[C@H](CCC(N)=O)NC(=O)[C@H](C)NC(=O)[C@H](CCCCNC(=O)COCCOCCNC(=O)CC[C@H](NC(=O)CCCCCCCCCCCCCCCCCCC(=O)O)C(=O)O)NC(=O)[C@H](CCCCN)NC(=O)[C@H](CC(=O)O)NC(=O)[C@H](CC(C)C)NC(=O)[C@](C)(CC(C)C)NC(=O)[C@@H](NC(=O)[C@H](CO)NC(=O)[C@H](Cc1ccc(O)cc1)NC(=O)[C@H](CC(=O)O)NC(=O)[C@H](CO)NC(=O)[C@@H](NC(=O)[C@H](Cc1ccccc1)NC(=O)[C@@H](NC(=O)CNC(=O)[C@H](CCC(N)=O)NC(=O)C(C)(C)NC(=O)[C@@H](N)Cc1ccc(O)cc1)[C@@H](C)O)[C@@H](C)O)[C@@H](C)CC)C(=O)N[C@@H](CCC(=O)O)C(=O)N[C@@H](Cc1ccc(O)cc1)C(=O)N[C@@H](CC(C)C)C(=O)N[C@@H](CC(C)C)C(=O)N[C@@H](CCC(=O)O)C(=O)NCC(=O)NCC(=O)N1CCC[C@H]1C(=O)N[C@@H](CO)C(=O)N[C@@H](CO)C(=O)NCC(=O)N[C@@H](C)C(=O)N1CCC[C@H]1C(=O)N1CCC[C@H]1C(=O)N1CCC[C@H]1C(=O)N[C@@H](CO)C(N)=O` [retatrutide], the EC50 (GIPR mutants [1]) was 0.00589 nM, the “Emax ± S.E.M. (% WT)” value (GIPR mutants [1]) was 99.43 ± 4.28 % WT and the “decrease of cAMP signaling potency by mutation” value (GIPR mutants [2]; GIPR E7.42bA (E377A), relative to WT) was 71.6 fold. For the same molecule, the “Emax ± S.E.M. (% WT)” value (GIPR mutants [2]; GIPR E377(7.42b)A, HEK-293T, 40 min, TR-FRET, mean ± S.E.M., n at least 3) was 99.83 ± 6.38 % WT, the EC50 (GIPR mutants [2]; GIPR E377(7.42b)A, HEK-293T, 40 min, TR-FRET, mean ± S.E.M., n at least 3, ****P < 0.0001) was 0.166 nM and the “change of retatrutide potency by mutation” value (GIPR mutants [3]; relative to WT, modestly) was “decreased”. The “Emax ± S.E.M. (% WT)” value (GIPR mutants [3]; HEK-293T, 40 min, TR-FRET, mean ± S.E.M., n at least 3) was 98.44 ± 3.88 % WT, the EC50 (GIPR mutants [3]; HEK-293T, 40 min, TR-FRET, mean ± S.E.M., n at least 3, **P < 0.01) was 0.00933 nM and the “Emax ± S.E.M. (% WT)” value (GCGR mutants [4]) was 100.39 ± 2.54 % WT. For the same molecule, the EC50 (GCGR mutants [4]; ****P < 0.0001) was 0.0661 nM, the “Emax ± S.E.M. (% WT)” value (GCGR mutants [5]) was 101.55 ± 2.54 % WT and the EC50 (GCGR mutants [5]; ****P < 0.0001) was 0.263 nM. For the same molecule, the EC50 (GCGR mutants [6]) was 0.00676 nM, the “Emax ± S.E.M. (% WT)” value (GCGR mutants [6]) was 100.15 ± 1.51 % WT and the “Emax ± S.E.M. (% WT)” value (GCGR mutants [7]) was 99.73 ± 0.94 % WT. The EC50 (GCGR mutants [7]; **P < 0.01) was 0.00324 nM, the “Emax ± S.E.M. (% WT)” value (GCGR mutants [8]) was 101.97 ± 3.51 % WT and the EC50 (GCGR mutants [8]; ****P < 0.0001) was 0.631 nM.

— PMC11255275, “Structural insights into the triple agonism at GLP-1R, GIPR and GCGR manifested by retatrutide” (Cell Discovery, 2024)
